Laboratory results published in paper PMC11721856, “Searching for novel MDM2/MDMX dual inhibitors through a drug repurposing approach” (Journal of Enzyme Inhibition and Medicinal Chemistry, 2023).

Legend:
[1] = target: T1, MDMX (Homo sapiens, UniProt O15151); assay: competitive fluorescence polarisation, % inhibition at […]; settings: read-out: Protein binding inhibition at 1 μM(%) ^a / MDMX
T1 construct: gene MDM4; residues 1–110
T1 sequence (O15151 1-110): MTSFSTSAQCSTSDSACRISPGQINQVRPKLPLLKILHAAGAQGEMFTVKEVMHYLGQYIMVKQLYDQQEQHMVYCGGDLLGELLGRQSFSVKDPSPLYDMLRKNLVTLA

[2] = target: T2, MDM2 (Homo sapiens, UniProt Q00987); assay: as above; settings: read-out: Protein binding inhibition at 1 μM(%) ^a / MDM2
T2 construct: residues 1–110

| inhibition at 1 µM [1] [%] | inhibition at 1 µM [2] [%] | Compound |
| --- | --- | --- |
| 57.9 ± 6.1 | 72.8 ± 5.6 | COC(=C1C(=O)Nc2cc(Cl)ccc21)c1ccccc1 [H3, 6-chloro-3-(methoxy(phenyl)methylene) indolin-2-one] |
| – | 56.8 ± 1.9 | COC(=C1C(=O)Nc2cc(F)ccc21)c1ccccc1 [H5, 6-fluoro-3-(methoxy(phenyl)methylene) indolin-2-one] |
| – | 50.3 ± 2.5 | COC(=C1C(=O)Nc2cc(Cl)c(F)cc21)c1ccccc1 [H6, 6-chloro-5-fluoro-3-(methoxy(phenyl)methylene) indolin-2-one] |
| – | 52.6 ± 2.1 | O=C1Nc2cc(Cl)ccc2C1=C(c1ccccc1)N1CCCC1 [H7, 6-chloro-3-(phenyl(pyrrolidin-1-yl)methylene)indolin-2-one] |
